Our source for the GI50 and TGI values is PubChem BioAssay (NCI).

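These data come from cells grown in 96-well plates and exposed to compound for 48 hours at five concentrations. Abbreviation: GI50, concentration required for 50% inhibition of growth. TGI is the concentration that stops growth completely.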 Where only a bound is given, the exact number is not on record here.

Test systems include HCT-116 colon; SNB-19 CNS; HT29 colon; MDA-MB-435; PC-3 prostate; HL-60(TB) leukemia; CCRF-CEM leukemia; LOX IMVI melanoma; HOP-62 NSCLC; DU-145 prostate.
Common to all, as to experiment: NCI tumour cell line growth inhibition, 48 h

For `CCCN(CCC)CCCNC(=O)c1cc2c(-c3ccc(OC)c(OC)c3)nn(C)c2s1`, the GI50 with HCT-116 colon is 17.7 µM; in the assay on SNB-19 CNS, 34.2 µM; in the assay with HT29 colon it was 14.5 µM; in the assay with MDA-MB-435, 14.1 µM; in the assay with PC-3 prostate, 33.8 µM; in the assay on HL-60(TB) leukemia, 20.7 µM. The GI50 is 20.3 µM with CCRF-CEM leukemia, 15.1 µM with LOX IMVI melanoma, 37.2 µM with HOP-62 NSCLC and 39.1 µM in the assay with DU-145 prostate. The TGI in the assay with HCT-116 colon is 55.3 µM; in the assay on SNB-19 CNS, over 100 µM; with HT29 colon, 45.3 µM; in the assay with MDA-MB-435, 31.8 µM; in the assay on PC-3 prostate it was over 100 µM; in the assay with HL-60(TB) leukemia it was 46.2 µM. In addition, the TGI in the assay on CCRF-CEM leukemia is 65.6 µM; with LOX IMVI melanoma, 31 µM; in the assay with HOP-62 NSCLC, over 100 µM; in the assay on DU-145 prostate it was over 100 µM.
As for `CC1(C)CC2C=C(C=O)C3(C=O)CC3(C)C2C1` (centres undefined), the TGI is 2.21 µM with HCT-116 colon; 25.6 µM with SNB-19 CNS; 4.54 µM with HT29 colon; 3.46 µM in the assay on MDA-MB-435; 4.33 µM with PC-3 prostate; over 100 µM in the assay with HL-60(TB) leukemia. Also, the TGI in the assay on CCRF-CEM leukemia was determined as 1.15 µM; in the assay on LOX IMVI melanoma it was 2.81 µM; in the assay on HOP-62 NSCLC it was 8.86 µM; with DU-145 prostate, 17.8 µM.
As to `O=C(c1cccs1)c1c(C(F)(F)F)n([O-])c2ccc(F)cc2[n+]1=O`, the GI50 with HCT-116 colon was 0.922 µM; with SNB-19 CNS it was 1.38 µM; with HT29 colon, 0.868 µM; in the assay with MDA-MB-435, 1.31 µM; in the assay with PC-3 prostate, 0.961 µM; in the assay with HL-60(TB) leukemia it was 0.154 µM. Also, the GI50 in the assay with CCRF-CEM leukemia was 0.662 µM; with LOX IMVI melanoma it was 0.971 µM; in the assay on HOP-62 NSCLC it was 1.58 µM; in the assay with DU-145 prostate, 1.15 µM. Moreover, the TGI amounted to 2.41 µM in the assay on HCT-116 colon; 2.86 µM in the assay on SNB-19 CNS; 2.47 µM with HT29 colon; 2.87 µM with MDA-MB-435; 2.33 µM in the assay with PC-3 prostate; 0.394 µM in the assay with HL-60(TB) leukemia. Besides, the TGI in the assay with CCRF-CEM leukemia is 1.98 µM; with LOX IMVI melanoma it was 2.67 µM; with HOP-62 NSCLC, 3.13 µM; in the assay with DU-145 prostate, 3.12 µM.
Regarding `CCOC(=O)C1=C(C)NC2SC(=O)/C(=C\c3ccccc3)N2C1c1ccccc1` (centres undefined), the GI50 is 67.5 µM in the assay with HCT-116 colon; over 100 µM in the assay on SNB-19 CNS; over 100 µM with HT29 colon; over 100 µM in the assay on MDA-MB-435; 31 µM in the assay with PC-3 prostate; 25.6 µM with HL-60(TB) leukemia. Also, the GI50 was 14.8 µM in the assay on CCRF-CEM leukemia, over 100 µM in the assay with LOX IMVI melanoma, over 100 µM in the assay with HOP-62 NSCLC and over 100 µM with DU-145 prostate. For the same compound, the TGI in the assay with HCT-116 colon, in the assay with SNB-19 CNS, in the assay on HT29 colon, with MDA-MB-435, with PC-3 prostate and with HL-60(TB) leukemia was over 100 µM each time. Also, the TGI with CCRF-CEM leukemia, with LOX IMVI melanoma, in the assay on HOP-62 NSCLC and in the assay with DU-145 prostate was over 100 µM in each case.
For `N#CN1CCC[C@H]1C(=O)N1CCc2c(-c3[nH]nc4ncccc34)cccc21`, the GI50 in the assay with HCT-116 colon is under 0.01 µM; with SNB-19 CNS, 0.157 µM; in the assay with HT29 colon, under 0.01 µM; in the assay with MDA-MB-435 it was under 0.01 µM; in the assay with PC-3 prostate, under 0.01 µM; with HL-60(TB) leukemia, under 0.01 µM. Moreover, the GI50 in the assay with CCRF-CEM leukemia is under 0.01 µM; in the assay with LOX IMVI melanoma, under 0.01 µM; in the assay with HOP-62 NSCLC, 0.0222 µM; with DU-145 prostate it was 0.018 µM. The TGI in the assay with HCT-116 colon is 8.14 µM; in the assay on SNB-19 CNS, 21.5 µM; with HT29 colon, 0.0129 µM; with MDA-MB-435, under 0.01 µM; in the assay with PC-3 prostate, 23.6 µM; in the assay on HL-60(TB) leukemia, under 0.01 µM. Besides, the TGI in the assay on CCRF-CEM leukemia turned out to be 28.4 µM; in the assay on LOX IMVI melanoma, 10.6 µM; in the assay on HOP-62 NSCLC it was 10.6 µM; in the assay on DU-145 prostate it was 11.3 µM.
Take `Cc1nc(/N=C(\N)NC(=O)Nc2ccccc2Cl)sc1C`: the GI50 in the assay on HCT-116 colon is 0.402 µM; in the assay on SNB-19 CNS, 0.462 µM; in the assay on HT29 colon it was 0.333 µM; with MDA-MB-435, 0.0868 µM; with PC-3 prostate, 0.659 µM; with HL-60(TB) leukemia, 0.331 µM. The GI50 in the assay on CCRF-CEM leukemia is 0.352 µM; in the assay with LOX IMVI melanoma, 0.533 µM; in the assay on HOP-62 NSCLC, 0.505 µM; in the assay with DU-145 prostate, 0.621 µM. For the same compound, the TGI is 12.4 µM in the assay on SNB-19 CNS; 5.32 µM with HT29 colon; 0.466 µM in the assay with MDA-MB-435; over 100 µM with PC-3 prostate; 28.9 µM with HL-60(TB) leukemia; over 53.2 µM in the assay with CCRF-CEM leukemia. For the same compound, the TGI in the assay with LOX IMVI melanoma was over 100 µM; in the assay on HOP-62 NSCLC it was 2.84 µM; in the assay with DU-145 prostate, 5.85 µM.
For `CC1=C([Se]CC(OC(=O)[C@@H](CO)NC(=O)OC(C)(C)C)C(=O)NC(C)(C)C)C(=O)c2ccccc2C1=O` (some centres undefined), the GI50 was 1.46 µM in the assay with HCT-116 colon; 0.66 µM with SNB-19 CNS; 2.3 µM with HT29 colon; 2.01 µM in the assay with MDA-MB-435; 1.35 µM in the assay with PC-3 prostate; 0.87 µM in the assay with HL-60(TB) leukemia. The GI50 was 0.525 µM in the assay on CCRF-CEM leukemia, 1.6 µM in the assay with LOX IMVI melanoma, 0.53 µM with HOP-62 NSCLC and 1.9 µM with DU-145 prostate. The TGI was determined as 2.79 µM with HCT-116 colon; 2 µM in the assay with SNB-19 CNS; 4.74 µM in the assay with HT29 colon; 4.1 µM in the assay with MDA-MB-435; 2.85 µM in the assay with PC-3 prostate; 3.81 µM in the assay with HL-60(TB) leukemia. Also, the TGI with CCRF-CEM leukemia was over 100 µM; in the assay with LOX IMVI melanoma, 3.02 µM; in the assay on HOP-62 NSCLC, 1.86 µM; with DU-145 prostate, 3.37 µM.
Take `N#Cc1cccc(NC(=O)c2oc3ccccc3c2-c2cnn(-c3ccccc3)c2)c1`: the GI50 was over 500 µM with HCT-116 colon; 192 µM with SNB-19 CNS; over 500 µM in the assay on HT29 colon; over 500 µM in the assay on MDA-MB-435; over 500 µM in the assay on PC-3 prostate; over 500 µM in the assay with HL-60(TB) leukemia. The GI50 in the assay with CCRF-CEM leukemia was over 500 µM; in the assay with LOX IMVI melanoma, 308 µM; in the assay on HOP-62 NSCLC, 320 µM; in the assay with DU-145 prostate it was over 500 µM. For the same compound, the TGI with HCT-116 colon, in the assay with SNB-19 CNS, in the assay with HT29 colon, with MDA-MB-435, in the assay with PC-3 prostate and with HL-60(TB) leukemia was over 500 µM each time. In addition, the TGI in the assay with CCRF-CEM leukemia, in the assay with LOX IMVI melanoma, in the assay with HOP-62 NSCLC and in the assay with DU-145 prostate was over 500 µM in each case.
